# Key:
# [1] = Measurement of solubility of photoacid generators in photoresist solvents; settings: for Solubility PGMEA: solvent PGMEA; for Solubility Cyclohexane: solvent cyclohexane
# [2] = Thermal stability by thermogravimetric analyzer (5% weight loss temperature); type: physicochemical
# Text: Measurement of Thermal Stability
# If a photoacid generator is thermally stable in a photoresist preparation process, a very good effect in terms of stability can be expected.
Structure (SMILES),Solubility PGMEA [1],Solubility Cyclohexane [1],Temperature at which 5% weight loss occurred [2]
O=C1c2cccc3c(CC4CCCCC4)ccc(c23)C(=O)N1OS(=O)(=O)C(F)(F)F [Compound 5],3.1 w/v; %,7.8 w/v; %,252 °C
"O=C1c2cccc3c(CC4CC4)ccc(c23)C(=O)N1OS(=O)(=O)C(F)(F)F [Compound 1, 4-cyclopropanemethyl-naphthalimide trifluoromethane sulfonate]",9.2 w/v; %,26.1 w/v; %,242 °C

# Now from value to compound:
Solubility PGMEA [1],Solubility Cyclohexane [1],Temperature at which 5% weight loss occurred [2],Structure (SMILES)
–,–,223 °C,"O=C1c2cccc3cccc(c23)C(=O)N1OS(=O)(=O)C(F)(F)F [Formula V, reference compound]"
6.3 w/v; %,21.3 w/v; %,258 °C,O=C1c2cccc3c(CCCC4CCCC4)ccc(c23)C(=O)N1OS(=O)(=O)C(F)(F)F [Compound 9]
11.0 w/v; %,31.2 w/v; %,236 °C,CC(C)(C)c1cc2c3c(ccc(CC4CCCCC4)c3c1)C(=O)N(OS(=O)(=O)C(F)(F)F)C2=O [Compound 19]
